The test system of one assay is THP1-Dual KO-TREX1 cells. The experiment in a line: THP1 TREX1 KO inhibition assay (type 1 interferon response). Format: cell-based. Particulars: Homo sapiens, 144 h, type 1 interferon (QUANTI-LUC), 1 μM 5-aza-2′-deoxycytidine, six days. The method in brief:
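THP1-Dual KO-TREX1 cells were treated with a dose titration of compound, alone or with 1 μM 5-aza-2′-deoxycytidine, for six days at 37 °C. Type 1 interferon was read as secreted luciferase (QUANTI-LUC) in the supernatant, and viability by CellTiter-Glo luminescence.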

Assay [1] can be described thus: Mitochondria toxicity assay with PC3 cells, in-cell ELISA COX-1. Format: cell-based. The conditions noted are these: 5 days treatment. In outline:
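This in-cell ELISA was run on fixed, permeabilized PC3 cells after 5-day exposure to titrated compound, with cytotoxicity measured on a duplicate plate. Results are reported as categories A (<1.0 μM) to E (>100.0 μM).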
(In general: An ELISA detects its analyte on a solid surface through an enzyme-linked reagent.)

Each structure is given as a SMILES string. Some results are limits rather than exact numbers.

The IC50 is the point on the concentration scale where inhibition reaches its midpoint. Read a low IC50 as higher potency.

As to `Nc1ccn([C@H]2C[C@H](O)[C@](CO)(C3CC3)O2)c(=O)n1` [Compound 16, 4-amino-1-((2R,4S,5R)-5-cyclopropyl-4-hydroxy-5-(hydroxymethyl)tetrahydrofuran-2-yl)pyrimidin-2(1H)-one], the IC50 with THP1-Dual KO-TREX1 cells is over 1000 nM; in assay [1], over 100000 nM.

Regarding `Nc1nc(=O)n([C@@H]2O[C@@](CO)(CF)[C@@H](O)[C@@H]2O)cc1F` [Compound 72, 4-amino-5-fluoro-1-((2R,3S,4S,5R)-5-(fluoromethyl)-3,4-dihydroxy-5-(hydroxymethyl)tetrahydrofuran-2-yl)pyrimidin-2(1H)-one], the figures for the IC50 (in the assay with THP1-Dual KO-TREX1 cells; in assay [1]) were over 1000 nM and 50000 to 100000 nM, respectively.

Regarding `Nc1nc(=O)n([C@@H]2O[C@@](CO)(CCl)[C@@H](O)[C@@H]2F)cc1F` [Compound 67, 4-amino-1-[(2R,3S,4R,5R)-5-(chloromethyl)-3-fluoro-4-hydroxy-5-(hydroxymethyl)oxolan-2-yl]-5-fluoropyrimidin-2-one], the IC50 in the assay on THP1-Dual KO-TREX1 cells was 250 to 1000 nM; in assay [1] it was over 100000 nM.

For the compound `[N-]=[N+]=N[C@]1(CO)O[C@@H](n2cc(F)c(N)nc2=O)C[C@@H]1O` [Compound 61, 4-amino-1-((2R,4S,5R)-5-azido-4-hydroxy-5-(hydroxymethyl)tetrahydrofuran-2-yl)-5-fluoropyrimidin-2(1H)-one], the IC50 with THP1-Dual KO-TREX1 cells was over 1000 nM; in assay [1] it was over 100000 nM.

Take `C[C@@H]1[C@H](n2ccc(N)nc2=O)O[C@](C)(CO)[C@H]1O` [Compound 19, 4-amino-1-((2R,3S,4S,5R)-4-hydroxy-5-(hydroxymethyl)-3,5-dimethyltetrahydrofuran-2-yl)pyrimidin-2(1H)-one]: the 50% inhibitory concentration (IC50) in the assay on THP1-Dual KO-TREX1 cells is over 1000 nM; in assay [1] it was 10000 to 50000 nM.

Take `Nc1ncnc2c1ncn2[C@H]1C[C@H](O)[C@](CO)(CCl)O1` [Compound 15, (2R,3S,5R)-5-(6-amino-9H-purin-9-yl)-2-(chloromethyl)-2-(hydroxymethyl)tetrahydrofuran-3-ol]: the IC50 was over 1000 nM in the assay with THP1-Dual KO-TREX1 cells and over 100000 nM in assay [1].

`CC[C@]1(CO)O[C@@H](n2ccc(N)nc2=O)[C@@H](F)[C@@H]1O` [Compound 51, 4-amino-1-((2R,3S,4R,5R)-5-ethyl-3-fluoro-4-hydroxy-5-(hydroxymethyl)tetrahydrofuran-2-yl)pyrimidin-2(1H)-one]: the values for the IC50 (with THP1-Dual KO-TREX1 cells; in assay [1]) were over 1000 nM and 10000 to 50000 nM, respectively.

As to `CO[C@@H]1[C@H](n2ccc(N)nc2=O)O[C@@](CO)(CCl)[C@H]1O` [Compound 13, 4-amino-1-((2R,3S,4S,5R)-5-(chloromethyl)-4-hydroxy-5-(hydroxymethyl)-3-methoxytetrahydrofuran-2-yl)pyrimidin-2(1H)-one], the IC50 in the assay on THP1-Dual KO-TREX1 cells was over 1000 nM; in assay [1] it was over 100000 nM.

As for `Nc1ccn([C@@H]2O[C@@](CO)(CCl)[C@@H](O)[C@@H]2F)c(=O)n1` [Compound 40, 4-amino-1-((2R,3S,4R,5R)-5-(chloromethyl)-3-fluoro-4-hydroxy-5-(hydroxymethyl)tetrahydrofuran-2-yl)pyrimidin-2(1H)-one], the IC50 is over 1000 nM with THP1-Dual KO-TREX1 cells and over 100000 nM in assay [1].

For `Nc1ccn([C@H]2C[C@H](O)[C@](CO)(CCl)O2)c(=O)n1` [Compound 2, 4-amino-1-((2R,4S,5R)-5-(chloromethyl)-4-hydroxy-5-(hydroxymethyl)tetrahydrofuran-2-yl)pyrimidin-2(1H)-one], the figures for the half-maximal inhibitory concentration (IC50) (with THP1-Dual KO-TREX1 cells; in assay [1]) were 50 to 100 nM and under 1000 nM, respectively.

For the compound `Nc1nc(=O)n([C@H]2C[C@H](O)[C@](CO)(CCl)O2)cc1F` [Compound 14, 4-amino-1-((2R,4S,5R)-5-(chloromethyl)-4-hydroxy-5-(hydroxymethyl)tetrahydrofuran-2-yl)-5-fluoropyrimidin-2(1H)-one], the IC50 is 100 to 250 nM in the assay with THP1-Dual KO-TREX1 cells and over 100000 nM in assay [1].

`C#C[C@]1(CO)O[C@@H](n2cnc3c(N)nc(Cl)nc32)C[C@@H]1O` [Compound 25]: the IC50 with THP1-Dual KO-TREX1 cells was over 1000 nM; in assay [1], 50000 to 100000 nM.

Turning to `Nc1nc(=O)n([C@@H]2O[C@@](CO)(CF)[C@@H](O)[C@@H]2F)cc1F` [Compound 85, 4-amino-5-fluoro-1-[(2R,3S,4R,5R)-3-fluoro-5-(fluoromethyl)-4-hydroxy-5-(hydroxymethyl)oxolan-2-yl] pyrimidin-2-one], the IC50 was 250 to 1000 nM in the assay with THP1-Dual KO-TREX1 cells and over 100000 nM in assay [1].

Turning to `CC[C@]1(CO)O[C@@H](n2ccc(N)nc2=O)C[C@@H]1O` [Compound 44, 4-amino-1-((2R,4S,5R)-5-ethyl-4-hydroxy-5-(hydroxymethyl)tetrahydrofuran-2-yl)pyrimidin-2(1H)-one], the figures for the IC50 (with THP1-Dual KO-TREX1 cells; in assay [1]) were over 1000 nM and over 100000 nM, respectively.

`C[C@@H]1[C@H](n2ccc(N)nc2=O)O[C@@](CO)(CCl)[C@H]1O` [Compound 12, 4-amino-1-((2R,3S,4S,5R)-5-(chloromethyl)-4-hydroxy-5-(hydroxymethyl)-3-methyltetrahydrofuran-2-yl)pyrimidin-2(1H)-one]: the IC50 in the assay on THP1-Dual KO-TREX1 cells was over 1000 nM; in assay [1], over 100000 nM.

For the compound `Nc1nc(=O)n([C@H]2C[C@H](O)[C@](CO)(CBr)O2)cc1F` [Compound 88, 4-amino-1-((2R,4S,5R)-5-(bromomethyl)-4-hydroxy-5-(hydroxymethyl)tetrahydrofuran-2-yl)-5-fluoropyrimidin-2(1H)-one], the half-inhibitory concentration (IC50) in the assay on THP1-Dual KO-TREX1 cells lay in the range of 250 to 1000 nM; in assay [1], 10000 to 50000 nM.

The record behind these values is patent publication US12187758B2 (ROME Therapeutics, Inc., priority 2022, dated 2025).
